Measurements: patent publication EP4806910A1, “TRI-AGONIST COMPOUND” (priority 2023, dated 2025)

Key:
Type in all cases: cell-based
GCG-R = biological target: T1, GCG-R (Homo sapiens, UniProt P47871); experiment: GCG activity test (cAMP, chemiluminescence)
T1 construct: expressed in transfected cells; host or cells: CHO-K1
Protocol: (§1) Upon stimulation by a specific agonist, GCG-R activates the intracellular adenylate cyclase signaling pathway, resulting in an increase in cAMP levels and ultimately leading to insulin production and secretion. A cell line stably transfected with GCG-R was stimulated with test compounds, thereby rapidly increasing intracellular cAMP levels. The relative luminescence units (RLU) of cells stimulated at various concentrations were measured by a chemiluminescence method, and the EC50 value of the agonist was calculated accordingly. This activity assay method is currently a commonly used method for evaluating GCG receptor agonist activity both domestically and internationally.
A CHO-K1 cell line stably expressing GCG-R was used. The stable cells were stimulated with agonists at different concentrations, and the relative luminescence units after stimulation at each concentration were measured to calculate the EC50 value of the agonist.

GLP-1R = biological target: T2, GLP-1R (Homo sapiens, UniProt P43220); experiment: GLP-1 activity test (cAMP, chemiluminescence)
T2 construct: expressed in transfected cells; host or cells: CHO-K1
Protocol: as §1, with “GLP-1R” for “GCG-R”, “test” for “assay”, “GLP-1” for “GCG”, “internationally. A CHO-K1 cell line stably expressing GLP-1R was used. The stable cells were stimulated with agonists at different concentrations, and the relative luminescence units after stimulation at each concentration were measured to calculate the EC50 value of the agonist.” for “internationally.”

GIPR = biological target: T3, GIPR (Homo sapiens, UniProt P48546); experiment: GIP activity test (cAMP, chemiluminescence)
T3 construct: expressed in transfected cells; host or cells: CHO-K1
T3 sequence (P48546 22-466): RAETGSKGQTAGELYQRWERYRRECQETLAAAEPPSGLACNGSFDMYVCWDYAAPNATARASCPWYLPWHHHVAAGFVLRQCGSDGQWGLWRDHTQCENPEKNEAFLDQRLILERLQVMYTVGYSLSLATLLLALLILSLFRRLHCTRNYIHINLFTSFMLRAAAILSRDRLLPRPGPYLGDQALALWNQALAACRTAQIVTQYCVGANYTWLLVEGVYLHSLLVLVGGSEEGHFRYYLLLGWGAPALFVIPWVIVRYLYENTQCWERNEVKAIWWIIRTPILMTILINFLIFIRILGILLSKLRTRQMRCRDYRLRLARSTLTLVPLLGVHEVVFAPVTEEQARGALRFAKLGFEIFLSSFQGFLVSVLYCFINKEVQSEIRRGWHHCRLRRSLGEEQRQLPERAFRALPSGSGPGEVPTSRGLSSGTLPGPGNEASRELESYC
Protocol: as §1, with “GIPR” for “GCG-R”, “GIP” for “GCG”, “internationally. A CHO-K1 cell line stably expressing GIPR was used. The stable cells were stimulated with agonists at different concentrations, and the relative luminescence units after stimulation at each concentration were measured to calculate the EC50 value of the agonist.” for “internationally.”

T2 sequence (P43220 24-463, species assumed): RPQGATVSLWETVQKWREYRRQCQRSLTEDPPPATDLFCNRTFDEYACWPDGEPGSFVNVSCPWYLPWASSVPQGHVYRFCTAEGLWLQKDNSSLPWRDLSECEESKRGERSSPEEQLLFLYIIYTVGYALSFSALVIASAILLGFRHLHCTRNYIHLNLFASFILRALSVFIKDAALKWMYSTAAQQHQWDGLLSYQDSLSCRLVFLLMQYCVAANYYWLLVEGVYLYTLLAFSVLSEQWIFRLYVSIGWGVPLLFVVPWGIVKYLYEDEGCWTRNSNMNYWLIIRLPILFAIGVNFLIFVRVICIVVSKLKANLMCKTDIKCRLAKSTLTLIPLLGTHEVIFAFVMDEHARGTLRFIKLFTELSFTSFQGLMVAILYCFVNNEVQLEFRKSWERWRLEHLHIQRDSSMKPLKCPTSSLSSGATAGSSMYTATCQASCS
T1 sequence (P47871 26-477, species assumed): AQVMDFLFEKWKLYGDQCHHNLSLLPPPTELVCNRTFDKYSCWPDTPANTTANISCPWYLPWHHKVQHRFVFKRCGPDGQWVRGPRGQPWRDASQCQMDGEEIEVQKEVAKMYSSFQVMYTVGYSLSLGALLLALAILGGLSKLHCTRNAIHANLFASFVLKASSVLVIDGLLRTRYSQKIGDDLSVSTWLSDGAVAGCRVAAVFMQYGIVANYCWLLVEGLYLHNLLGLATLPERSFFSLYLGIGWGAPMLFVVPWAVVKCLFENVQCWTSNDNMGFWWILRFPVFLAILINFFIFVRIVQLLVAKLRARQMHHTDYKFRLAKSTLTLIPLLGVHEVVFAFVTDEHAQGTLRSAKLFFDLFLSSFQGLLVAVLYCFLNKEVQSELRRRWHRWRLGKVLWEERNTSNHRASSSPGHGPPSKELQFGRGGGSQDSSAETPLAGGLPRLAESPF

CC[C@H](C)[C@H](NC(=O)[C@H](Cc1ccccc1)NC(=O)[C@H](C)NC(=O)C(C)(C)NC(=O)[C@H](CCC(N)=O)NC(=O)[C@H](C)NC(=O)[C@H](CCCCNC(=O)COCCOCCNC(=O)CC[C@H](NC(=O)CCCCCCCCCCCCCCCCCCC(=O)O)C(=O)O)NC(=O)[C@H](CCCCN)NC(=O)[C@H](CC(=O)O)NC(=O)[C@H](CC(C)C)NC(=O)C(C)(CC(C)C)NC(=O)[C@@H](NC(=O)[C@H](CO)NC(=O)[C@H](Cc1ccc(O)cc1)NC(=O)[C@H](CC(=O)O)NC(=O)[C@H](CO)NC(=O)[C@@H](NC(=O)C(C)(Cc1ccccc1)NC(=O)[C@@H](NC(=O)CNC(=O)[C@H](CCC(N)=O)NC(=O)C(C)(C)NC(=O)[C@@H](N)Cc1ccc(O)cc1)[C@@H](C)O)[C@@H](C)O)[C@@H](C)CC)C(=O)N[C@@H](CCC(=O)O)C(=O)N[C@@H](Cc1ccc(O)cc1)C(=O)N[C@@H](CC(C)C)C(=O)N[C@@H](CC(C)C)C(=O)N[C@@H](CCC(=O)O)C(=O)NCCCCC(=O)N1CCC[C@H]1C(=O)N[C@@H](CO)C(=O)N[C@@H](CO)C(=O)NCC(=O)N[C@@H](C)C(=O)N1CCC[C@H]1C(=O)N1CCC[C@H]1C(=O)N1CCC[C@H]1C(=O)N[C@@H](CO)C(N)=O (stereo partly drawn) [Compound 1] showed an EC50 (GCG-R) of 0.271 nM, an EC50 (GLP-1R) of 0.045 nM and an EC50 (GIPR) of 0.0244 nM.
CC[C@H](C)[C@H](NC(=O)[C@H](Cc1ccccc1)NC(=O)[C@H](C)NC(=O)C(C)(C)NC(=O)[C@H](CCC(N)=O)NC(=O)[C@H](C)NC(=O)[C@H](CCCCNC(=O)COCCOCCNC(=O)CCCC[C@H](NC(=O)CCCCCCCCCCCCCCCCCCC(=O)O)C(=O)O)NC(=O)[C@H](CCCCN)NC(=O)[C@H](CC(=O)O)NC(=O)[C@H](CC(C)C)NC(=O)C(C)(CC(C)C)NC(=O)[C@@H](NC(=O)[C@H](CO)NC(=O)[C@H](Cc1ccc(O)cc1)NC(=O)[C@H](CC(=O)O)NC(=O)[C@H](CO)NC(=O)[C@@H](NC(=O)C(C)(Cc1ccccc1)NC(=O)[C@@H](NC(=O)CNC(=O)[C@H](CCC(N)=O)NC(=O)C(C)(C)NC(=O)[C@@H](N)Cc1ccc(O)cc1)[C@@H](C)O)[C@@H](C)O)[C@@H](C)CC)C(=O)N[C@@H](CCC(=O)O)C(=O)N[C@@H](Cc1ccc(O)cc1)C(=O)N[C@@H](CC(C)C)C(=O)N[C@@H](CC(C)C)C(=O)N[C@@H](CCC(=O)O)C(=O)NCCCCC(=O)N1CCC[C@H]1C(=O)N[C@@H](CO)C(=O)N[C@@H](CO)C(=O)NCC(=O)N[C@@H](C)C(=O)N1CCC[C@H]1C(=O)N1CCC[C@H]1C(=O)N1CCC[C@H]1C(=O)N[C@@H](CO)C(N)=O (stereo partly drawn) [Compound 3] showed an EC50 (GCG-R) of 0.283 nM, an EC50 (GLP-1R) of 0.0452 nM and an EC50 (GIPR) of 0.0267 nM.
Work on CC[C@H](C)[C@H](NC(=O)[C@H](Cc1ccccc1)NC(=O)[C@H](C)NC(=O)C(C)(C)NC(=O)[C@H](CCC(N)=O)NC(=O)[C@H](C)NC(=O)[C@H](CCCCNC(=O)COCCOCCNC(=O)CCCCC[C@H](NC(=O)CCCCCCCCCCCCCCCCCCC(=O)O)C(=O)O)NC(=O)[C@H](CCCCN)NC(=O)[C@H](CC(=O)O)NC(=O)[C@H](CC(C)C)NC(=O)C(C)(CC(C)C)NC(=O)[C@@H](NC(=O)[C@H](CO)NC(=O)[C@H](Cc1ccc(O)cc1)NC(=O)[C@H](CC(=O)O)NC(=O)[C@H](CO)NC(=O)[C@@H](NC(=O)C(C)(Cc1ccccc1)NC(=O)[C@@H](NC(=O)CNC(=O)[C@H](CCC(N)=O)NC(=O)C(C)(C)NC(=O)[C@@H](N)Cc1ccc(O)cc1)[C@@H](C)O)[C@@H](C)O)[C@@H](C)CC)C(=O)N[C@@H](CCC(=O)O)C(=O)N[C@@H](Cc1ccc(O)cc1)C(=O)N[C@@H](CC(C)C)C(=O)N[C@@H](CC(C)C)C(=O)N[C@@H](CCC(=O)O)C(=O)NCCCCC(=O)N1CCC[C@H]1C(=O)N[C@@H](CO)C(=O)N[C@@H](CO)C(=O)NCC(=O)N[C@@H](C)C(=O)N1CCC[C@H]1C(=O)N1CCC[C@H]1C(=O)N1CCC[C@H]1C(=O)N[C@@H](CO)C(N)=O (stereo partly drawn) [Compound 4] yielded an EC50 (GCG-R) of 0.286 nM, an EC50 (GLP-1R) of 0.0554 nM and an EC50 (GIPR) of 0.031 nM.
In the case of CC[C@H](C)[C@H](NC(=O)[C@H](Cc1ccccc1)NC(=O)[C@H](C)NC(=O)C(C)(C)NC(=O)[C@H](CCC(N)=O)NC(=O)[C@H](C)NC(=O)[C@H](CCCCNC(=O)COCCOCCNC(=O)CC[C@H](NC(=O)CCCCCCCCCCCCCCCCCCC(=O)O)C(=O)O)NC(=O)[C@H](CCCCN)NC(=O)[C@H](CC(=O)O)NC(=O)[C@H](CC(C)C)NC(=O)C(C)(CC(C)C)NC(=O)[C@@H](NC(=O)[C@H](CO)NC(=O)[C@H](Cc1ccc(O)cc1)NC(=O)[C@H](CC(=O)O)NC(=O)[C@H](CO)NC(=O)[C@@H](NC(=O)C(C)(Cc1ccccc1F)NC(=O)[C@@H](NC(=O)CNC(=O)[C@H](CCC(N)=O)NC(=O)C(C)(C)NC(=O)[C@@H](N)Cc1ccc(O)cc1)[C@@H](C)O)[C@@H](C)O)[C@@H](C)CC)C(=O)N[C@@H](CCC(=O)O)C(=O)N[C@@H](Cc1ccc(O)cc1)C(=O)N[C@@H](CC(C)C)C(=O)N[C@@H](CC(C)C)C(=O)N[C@@H](CCC(=O)O)C(=O)NCCCCC(=O)N1CCC[C@H]1C(=O)N[C@@H](CO)C(=O)N[C@@H](CO)C(=O)NCC(=O)N[C@@H](C)C(=O)N1CCC[C@H]1C(=O)N1CCC[C@H]1C(=O)N1CCC[C@H]1C(=O)N[C@@H](CO)C(N)=O (stereo partly drawn) [Compound 5], the EC50 (GCG-R) is reported as 0.159 nM, the EC50 (GLP-1R) is reported as 0.0434 nM and the EC50 (GIPR) is reported as 0.0236 nM.
With CC[C@H](C)[C@H](NC(=O)[C@H](Cc1ccccc1)NC(=O)[C@H](C)NC(=O)C(C)(C)NC(=O)[C@H](CCC(N)=O)NC(=O)[C@H](C)NC(=O)[C@H](CCCCNC(=O)COCCOCCNC(=O)CCCC[C@H](NC(=O)CCCCCCCCCCCCCCCCCCC(=O)O)C(=O)O)NC(=O)[C@H](CCCCN)NC(=O)[C@H](CC(=O)O)NC(=O)[C@H](CC(C)C)NC(=O)C(C)(CC(C)C)NC(=O)[C@@H](NC(=O)[C@H](CO)NC(=O)[C@H](Cc1ccc(O)cc1)NC(=O)[C@H](CC(=O)O)NC(=O)[C@H](CO)NC(=O)[C@@H](NC(=O)C(C)(Cc1ccccc1F)NC(=O)[C@@H](NC(=O)CNC(=O)[C@H](CCC(N)=O)NC(=O)C(C)(C)NC(=O)[C@@H](N)Cc1ccc(O)cc1)[C@@H](C)O)[C@@H](C)O)[C@@H](C)CC)C(=O)N[C@@H](CCC(=O)O)C(=O)N[C@@H](Cc1ccc(O)cc1)C(=O)N[C@@H](CC(C)C)C(=O)N[C@@H](CC(C)C)C(=O)N[C@@H](CCC(=O)O)C(=O)NCCCCC(=O)N1CCC[C@H]1C(=O)N[C@@H](CO)C(=O)N[C@@H](CO)C(=O)NCC(=O)N[C@@H](C)C(=O)N1CCC[C@H]1C(=O)N1CCC[C@H]1C(=O)N1CCC[C@H]1C(=O)N[C@@H](CO)C(N)=O (stereo partly drawn) [Compound 7] the EC50 (GCG-R) was 0.163 nM, the EC50 (GLP-1R) was 0.0455 nM and the EC50 (GIPR) was 0.0246 nM.
For CC[C@H](C)[C@H](NC(=O)[C@H](Cc1ccccc1)NC(=O)[C@H](C)NC(=O)C(C)(C)NC(=O)[C@H](CCC(N)=O)NC(=O)[C@H](C)NC(=O)[C@H](CCCCNC(=O)COCCOCCNC(=O)CCCCC[C@H](NC(=O)CCCCCCCCCCCCCCCCCCC(=O)O)C(=O)O)NC(=O)[C@H](CCCCN)NC(=O)[C@H](CC(=O)O)NC(=O)[C@H](CC(C)C)NC(=O)C(C)(CC(C)C)NC(=O)[C@@H](NC(=O)[C@H](CO)NC(=O)[C@H](Cc1ccc(O)cc1)NC(=O)[C@H](CC(=O)O)NC(=O)[C@H](CO)NC(=O)[C@@H](NC(=O)C(C)(Cc1ccccc1F)NC(=O)[C@@H](NC(=O)CNC(=O)[C@H](CCC(N)=O)NC(=O)C(C)(C)NC(=O)[C@@H](N)Cc1ccc(O)cc1)[C@@H](C)O)[C@@H](C)O)[C@@H](C)CC)C(=O)N[C@@H](CCC(=O)O)C(=O)N[C@@H](Cc1ccc(O)cc1)C(=O)N[C@@H](CC(C)C)C(=O)N[C@@H](CC(C)C)C(=O)N[C@@H](CCC(=O)O)C(=O)NCCCCC(=O)N1CCC[C@H]1C(=O)N[C@@H](CO)C(=O)N[C@@H](CO)C(=O)NCC(=O)N[C@@H](C)C(=O)N1CCC[C@H]1C(=O)N1CCC[C@H]1C(=O)N1CCC[C@H]1C(=O)N[C@@H](CO)C(N)=O (stereo partly drawn) [Compound 8], the EC50 (GCG-R) was 0.179 nM, the EC50 (GLP-1R) was 0.0524 nM and the EC50 (GIPR) was 0.0329 nM.
